Data from the NIST ThermoML archive (doi:10.1016/j.jct.2004.01.003).

Experiment: mn = molality of the nth substance listed, in mol/kg
Conditions: 350 kPa, Liquid

O=[N+]([O-])[O-].O=[N+]([O-])[O-].[Ba+2] [barium dinitrate] + O
apparent molar volume [m3/mol]
Conditions | m1 = 0.02026 | m1 = 0.0208 | m1 = 0.03085 | m1 = 0.0401 | m1 = 0.05028 | m1 = 0.07046 | m1 = 0.1005 | m1 = 0.1931
278.15 K | 3.67e-05 | 3.55e-05 | 3.91e-05 | 3.99e-05 | 3.81e-05 | 4.19e-05 | 4.18e-05 | 4.43e-05
283.15 K | 3.99e-05 | 3.77e-05 | 4.13e-05 | 4.27e-05 | 4.16e-05 | 4.41e-05 | 4.44e-05 | 4.63e-05
288.15 K | 4.18e-05 | 4.07e-05 | 4.28e-05 | 4.4e-05 | 4.39e-05 | 4.53e-05 | 4.59e-05 | 4.77e-05
298.15 K | 4.32e-05 | 4.44e-05 | 4.64e-05 | 4.8e-05 | 4.82e-05 | 4.84e-05 | 4.9e-05 | 5.08e-05
308.15 K | 4.53e-05 | 4.61e-05 | 4.89e-05 | 5.05e-05 | 5.07e-05 | 5.07e-05 | 5.12e-05 | 5.3e-05
318.15 K | 4.89e-05 | 4.77e-05 | 4.97e-05 | 5.24e-05 | 5.25e-05 | 5.26e-05 | 5.27e-05 | 5.48e-05
328.15 K | 5.14e-05 | 5.01e-05 | 5.17e-05 | 5.39e-05 | 5.38e-05 | 5.39e-05 | 5.38e-05 | 5.57e-05
338.15 K | 5.31e-05 | 5.15e-05 | 5.29e-05 | 5.46e-05 | 5.43e-05 | 5.46e-05 | 5.47e-05 | 5.66e-05
348.15 K | 5.4e-05 | 5.21e-05 | 5.35e-05 | 5.52e-05 | 5.49e-05 | 5.51e-05 | 5.52e-05 | 5.71e-05
358.15 K | 5.5e-05 | 5.21e-05 | 5.38e-05 | 5.49e-05 | 5.53e-05 | 5.51e-05 | 5.54e-05 | 5.73e-05
368.15 K | 4.76e-05 | 5.17e-05 | 5.39e-05 | 5.44e-05 | 5.5e-05 | 5.46e-05 | 5.5e-05 | 5.71e-05
